Data reported in patent US20150283287A1, “METHODS AND COMPOSITIONS FOR WOUND HEALING” (IMBED BIOSCIENCES, INC., priority 2012, published 2015).

Experiments:
established biofilms = details: in TSB; cited from earlier work
mammalian cells = details: cited from earlier work
[1] = test system: P. aeruginosa (ATCC 27853) biofilms; experiment: Inhibition of biofilm formation (crystal violet staining); type: cell-based, Pseudomonas aeruginosa
Method: During the development of embodiments of the technology provided herein, experiments were conducted to determine the minimum concentration of Ga (e.g., as Ga(NO3)3) to inhibit biofilm formation. In particular, Ga was added to cultures of Pseudomonas aeruginosa in biofilm growth media (500 μL of 1% tryptic soy broth (TSB)) to test the inhibition of biofilm formation at the bottom of 48-well tissue culture plates.
Biofilm growth arising from suspensions of 10^6 CFU/ml P. aeruginosa (ATCC 27853) was quantified after 24, 48, and 72 hours by staining biofilms with crystal violet, following methods described previously (Brandenburg et al. Tryptophan Inhibits Biofilm Formation by Pseudomonas aeruginosa. Antimicrobial Agents and Chemotherapy. 2013; 57:1921-5).

incisional wounds = details: in vivo; cited from earlier work

| Compound | Concentration that disperses established biofilms (established biofilms) [µM] | Concentrations not cytotoxic to mammalian cells (mammalian cells) | Effect on free (planktonic) bacterial counts ([1]; 25 μM) | Concentration in solution sufficient to completely inhibit biofilm formation ([1]; 72 hours, 10^6 CFU/ml in 1% TSB) [µM] | Fibroblastic proliferation (incisional wounds) | Production of collagen (incisional wounds) |
| --- | --- | --- | --- | --- | --- | --- |
| O=[N+]([O-])[O-].O=[N+]([O-])[O-].O=[N+]([O-])[O-].[Ga+3] [Ga^3+, Ga(NO3)3] | 100 | up to 1 mM | not bactericidal | 25 |  |  |
| CC1=C(/C=C/C(C)=C/C=C/C(C)=C/C(=O)O)C(C)(C)CCC1 [tretinoin] |  |  |  |  | increased | diminished |
